Source: patent publication US9073940B2, “Tricyclic pyrazol amine derivatives” (MERCK SERONO SA, priority 2009, dated 2015)

Test system: 4 PI3K isoforms (Human recombinant GST-PI3K)
Assay: PI3K scintillation proximity assay, best IC50 obtained with the four isoforms (alpha, beta, delta, gamma)
Assay type: biochemical
Conditions: best IC50 obtained with the four isoforms of PI3K; read-out: Best potency measured on the 4 PI3K isoforms

Structure (SMILES)	IC50 [nM]
O=C(c1nn([C@H]2CCCN(C3CCCOC3)C2)c2c1CS(=O)(=O)c1c(F)cccc1-2)N1CCOCC1 (stereo in doubt) [Example 425, 6-Fluoro-3-(morpholin-4-ylcarbonyl)-1-[1-(tetrahydro-2H-pyran-3-yl)piperidin-3-yl]-1,4-dihydrothiochromeno[4,3-c]pyrazole 5,5-dioxide]	25
O=C(c1nn([C@H]2CCCN(C3CCOCC3)C2)c2c1CS(=O)(=O)c1c(F)cccc1-2)N1CCOCC1 (stereo in doubt) [Example 427, 6-fluoro-3-(morpholin-4-ylcarbonyl)-1-[1-(tetrahydro-2H-pyran-4-yl)piperidin-3-yl]-1,4-dihydrothiochromeno[4,3-c]pyrazole 5,5-dioxide]	13
O=C(CCN1CCC[C@H](n2nc(C(=O)N3CCOCC3)c3c2-c2ccccc2S(=O)(=O)C3)C1)N1CC(F)(F)C1 (stereo in doubt) [Example 429, 1-{1-[3-(3,3-difluoroazetidin-1-yl)-3-oxopropyl]piperidin-3-yl}-3-(morpholin-4-ylcarbonyl)-1,4-dihydrothiochromeno[4,3-c]pyrazole 5,5-dioxide]	39
COCCN(C)CCN1CCC[C@H](n2nc(C(=O)N3CCOCC3)c3c2-c2ccccc2S(=O)(=O)C3)C1 (stereo in doubt) [Example 438, 2-methoxy-N-methyl-N-(2-{3-[3-(morpholin-4-ylcarbonyl)-5,5-dioxidothiochromeno[4,3-c]pyrazol-1(4H)-yl]piperidin-1-yl}ethyl)ethanamine]	45
COC1CCN(CCN2CCC[C@H](n3nc(C(=O)N4CCOCC4)c4c3-c3ccccc3S(=O)(=O)C4)C2)C1 (stereo in doubt) [Example 439, 1-{1-[2-(3-methoxypyrrolidin-1-yl)ethyl]piperidin-3-yl}-3-(morpholin-4-ylcarbonyl)-1,4-dihydrothiochromeno[4,3-c]pyrazole 5,5-dioxide]	25
O=C(CCN1CCC[C@H](n2nc(C(=O)N3CCOCC3)c3c2-c2ccccc2S(=O)(=O)C3)C1)N1CCC(F)(F)C1 (stereo in doubt) [Example 441, 1-{1-[3-(3,3-difluoropyrrolidin-1-yl)-3-oxopropyl]piperidin-3-yl}-3-(morpholin-4-ylcarbonyl)-1,4-dihydrothiochromeno[4,3-c]pyrazole 5,5-dioxide]	41
CC(=O)NCCN1CCC[C@H](n2nc(C(=O)N3CCOCC3)c3c2-c2ccccc2S(=O)(=O)C3)C1 (stereo in doubt) [Example 444, N-(2-{3-[3-(morpholin-4-ylcarbonyl)-5,5-dioxidothiochromeno[4,3-c]pyrazol-1(4H)-yl]piperidin-1-yl}ethyl)acetamide]	105
COCCNCCN1CCC[C@H](n2nc(C(=O)N3CCOCC3)c3c2-c2ccccc2S(=O)(=O)C3)C1 (stereo in doubt) [Example 445, 2-methoxy-N-(2-{3-[3-(morpholin-4-ylcarbonyl)-5,5-dioxidothiochromeno[4,3-c]pyrazol-1(4H)-yl]piperidin-1-yl}ethyl)ethanamine]	34
COC1CN(CCN2CCC[C@H](n3nc(C(=O)N4CCOCC4)c4c3-c3ccccc3S(=O)(=O)C4)C2)C1 (stereo in doubt) [Example 446, 1-{1-[2-(3-methoxyazetidin-1-yl)ethyl]piperidin-3-yl}-3-(morpholin-4-ylcarbonyl)-1,4-dihydrothiochromeno[4,3-c]pyrazole 5,5-dioxide]	20
COCC(=O)N1CCC[C@H](n2nc(C(=O)N3CCOCC3)c3c2-c2ccccc2S(=O)(=O)C3)C1 (stereo in doubt) [Example 447, 1-[1-(methoxyacetyl)piperidin-3-yl]-3-(morpholin-4-ylcarbonyl)-1,4-dihydrothiochromeno[4,3-c]pyrazole 5,5-dioxide]	261
COCCN(CCOC)CCN1CCC[C@H](n2nc(C(=O)N3CCOCC3)c3c2-c2ccccc2S(=O)(=O)C3)C1 (stereo in doubt) [Example 448, 2-methoxy-N-(2-methoxyethyl)-N-(2-{3-[3-(morpholin-4-ylcarbonyl)-5,5-dioxidothiochromeno[4,3-c]pyrazol-1(4H)-yl]piperidin-1-yl}ethyl)ethanamine]	113
O=C(c1nn([C@H]2CCCN(CCN3CCCC3)C2)c2c1CS(=O)(=O)c1ccccc1-2)N1CCOCC1 (stereo in doubt) [Example 450, 3-(morpholin-4-ylcarbonyl)-1-[1-(2-pyrrolidin-1-ylethyl)piperidin-3-yl]-1,4-dihydrothiochromeno[4,3-c]pyrazole 5,5-dioxide]	7
CN1CCC(N2CCC[C@H](n3nc(C(=O)N4CCOCC4)c4c3-c3ccccc3S(=O)(=O)C4)C2)CC1 (stereo in doubt) [Example 451, 1-[1′-methyl-1,4′-bipiperidin-3-yl]-3-(morpholin-4-ylcarbonyl)-1,4-dihydrothiochromeno[4,3-c]pyrazole 5,5-dioxide]	28
CN1CCCC(N2CCC[C@H](n3nc(C(=O)N4CCOCC4)c4c3-c3ccccc3S(=O)(=O)C4)C2)C1 (stereo in doubt) [Example 459, 1-[1′-methyl-1,3′-bipiperidin-3-yl]-3-(morpholin-4-ylcarbonyl)-1,4-dihydrothiochromeno[4,3-c]pyrazole 5,5-dioxide]	18
COC1CCN(CCN2CCC[C@H](n3nc(C(=O)N4CCOCC4)c4c3-c3ccccc3S(=O)(=O)C4)C2)CC1 (stereo in doubt) [Example 460, 1-{1-[2-(4-methoxypiperidin-1-yl)ethyl]piperidin-3-yl}-3-(morpholin-4-ylcarbonyl)-1,4-dihydrothiochromeno[4,3-c]pyrazole 5,5-dioxide]	21
O=C(c1nn([C@H]2CCCN(CCN3CCC(O)CC3)C2)c2c1CS(=O)(=O)c1ccccc1-2)N1CCOCC1 (stereo in doubt) [Example 463, 1-(2-{3-[3-(morpholin-4-ylcarbonyl)-5,5-dioxidothiochromeno[4,3-c]pyrazol-1(4H)-yl]piperidin-1-yl}ethyl)piperidin-4-ol]	18
O=C(c1nn([C@H]2CCCN(CCN3CC(F)(F)C3)C2)c2c1CS(=O)(=O)c1c(F)cccc1-2)N1CCOCC1 (stereo in doubt) [Example 464, 1-{1-[2-(3,3-difluoroazetidin-1-yl)ethyl]piperidin-3-yl}-6-fluoro-3-(morpholin-4-ylcarbonyl)-1,4-dihydrothiochromeno[4,3-c]pyrazole 5,5-dioxide]	22
O=C(c1nn([C@H]2CCCN(CCN3CCCCC3)C2)c2c1CS(=O)(=O)c1ccccc1-2)N1CCOCC1 (stereo in doubt) [Example 465, 3-(morpholin-4-ylcarbonyl)-1-[1-(2-piperidin-1-ylethyl)piperidin-3-yl]-1,4-dihydrothiochromeno[4,3-c]pyrazole 5,5-dioxide]	15
O=C(c1nn([C@H]2CCCN(Cc3cccnc3)C2)c2c1CS(=O)(=O)c1ccccc1-2)N1CCOCC1 (stereo in doubt) [Example 466, 3-(morpholin-4-ylcarbonyl)-1-[1-(pyridin-3-ylmethyl)piperidin-3-yl]-1,4-dihydrothiochromeno[4,3-c]pyrazole 5,5-dioxide]	85
O=C(c1nn([C@H]2CCCN(c3ccncc3)C2)c2c1CS(=O)(=O)c1ccccc1-2)N1CCOCC1 (stereo in doubt) [Example 468, 3-(morpholin-4-ylcarbonyl)-1-[1-pyridin-4-ylpiperidin-3-yl]-1,4-dihydrothiochromeno[4,3-c]pyrazole 5,5-dioxide]	133
Cc1cccc2c1S(=O)(=O)Cc1c(C(=O)N3CCOCC3)nn([C@H]3CCCN(CCN4CCOCC4)C3)c1-2 (stereo in doubt) [Example 471, 6-methyl-3-(morpholin-4-ylcarbonyl)-1-[1-(2-morpholin-4-ylethyl)piperidin-3-yl]-1,4-dihydrothiochromeno[4,3-c]pyrazole 5,5-dioxide]	49
O=C(c1nn([C@H]2CCCN(Cc3ccncc3)C2)c2c1CS(=O)(=O)c1ccccc1-2)N1CCOCC1 (stereo in doubt) [Example 473, 3-(morpholin-4-ylcarbonyl)-1-[1-(pyridin-4-ylmethyl)piperidin-3-yl]-1,4-dihydrothiochromeno[4,3-c]pyrazole 5,5-dioxide]	45
COC1CCN(CCN2CCC[C@H](n3nc(C(=O)N4CCOCC4)c4c3-c3ccc(F)cc3S(=O)(=O)C4)C2)CC1 (stereo in doubt) [Example 474, 7-fluoro-1-{1-[2-(4-methoxypiperidin-1-yl)ethyl]piperidin-3-yl}-3-(morpholin-4-ylcarbonyl)-1,4-dihydrothiochromeno[4,3-c]pyrazole 5,5-dioxide]	13
COc1cccc2c1S(=O)(=O)Cc1c(C(=O)N3CCOCC3)nn(C)c1-2 [Example 2, 6-methoxy-1-methyl-3-(morpholin-4-ylcarbonyl)-1,4-dihydrothiochromeno[4,3-c]pyrazole 5,5-dioxide]	1730
O=C(c1n[nH]c2c1CS(=O)(=O)c1ccccc1-2)N1CCOCC1 [Example 3, 3-(morpholin-4-ylcarbonyl)-2,4-dihydrothiochromeno[4,3-c]pyrazole 5,5-dioxide]	2880
COc1ccc2c(c1)S(=O)(=O)Cc1c(C(=O)N3CCOCC3)nn(C)c1-2 [Example 4, 7-methoxy-1-methyl-3-(morpholin-4-ylcarbonyl)-1,4-dihydrothiochromeno[4,3-c]pyrazole 5,5-dioxide]	422
COc1ccc2c(c1)S(=O)(=O)Cc1c(C(=O)N3CCOCC3)nn(-c3ccccc3)c1-2 [Example 5, 7-methoxy-3-(morpholin-4-ylcarbonyl)-1-phenyl-1,4-dihydrothiochromeno[4,3-c]pyrazole 5,5-dioxide]	349
Cc1cccc(-n2nc(C(=O)N3CCOCC3)c3c2-c2ccccc2S(=O)(=O)C3)c1 [Example 6, 1-(3-methylphenyl)-3-(morpholin-4-ylcarbonyl)-1,4-dihydrothiochromeno[4,3-c]pyrazole 5,5-dioxide]	926
Cc1ccc(F)cc1-n1nc(C(=O)N2CCOCC2)c2c1-c1ccccc1S(=O)(=O)C2 [Example 8, 1-(5-fluoro-2-methylphenyl)-3-(morpholin-4-ylcarbonyl)-1,4-dihydrothiochromeno[4,3-c]pyrazole 5,5-dioxide]	4200
